Drawing on patent US7709645B2, “Pyrrolo-pyridine kinase modulators” (SGX Pharmaceuticals, Inc., priority 2004, dated 2010), this text covers IC50 for six compounds.

In general, IC50 refers to the concentration at which inhibition is half-maximal. Read a low IC50 as inhibition by little substance.

One test relates to Ba/F3-T315I cells. Nature of the test: Ba/F3-T315I XTT Assay (cell survival). In kind it is cell-based. As to conditions: 72 hours. How it is done:
MV4-11 and THP cells were maintained in Iscove's Modified Dulbecco's Medium supplemented with 10% fetal bovine serum (FBS) and penicillin/streptomycin, Ba/F3 cells were maintained in RPMI 1640 supplemented with 10% FBS, penicillin/streptomycin and 5 ng/ml recombinant mouse IL-3.
Compounds were tested in the following assays in duplicate.
96-well XTT assay: Cells (e.g. BaF3 315I, M351I, or E255K cells) were grown in growth media containing various concentrations of compounds (duplicates) on a 96-well plate for 72 hours at 37° C. The starting cell number was 5000-8000 cells per well and volume was 120 μl. At the end of the 72-hour incubation, 40 μl of XTT labeling mixture (50:1 solution of sodium 3′-[1-(phenylamino-carbonyl)-3,4-tetrazolium]-bis(4-methoxy-6-nitro) benzene sulfonic acid hydrate and Electron-coupling reagent: PMS (N-methyl dibenzopyrazine methyl sulfate) were added to each well of the plate. After an additional 2-6 hours of incubation at 37° C., the absorbance reading at 405 nm with background correction at 650 nm was measured with a spectrophotometer.
(In general: Tetrazolium dyes change colour on reduction, which living cells bring about.)
In turn, `COc1ccccc1-c1c[nH]c2ncc(-c3ccc4[nH]cc(CC(=O)O)c4c3)cc12` [AE10] registered an IC50 of under 100 nM.

The target in another test is T1, Autophosphorylated AurA kinase (Homo sapiens, UniProt O14965).
T1 construct: made in house; host or cells: Sf9 insect cells
T1 sequence (O14965 1-403): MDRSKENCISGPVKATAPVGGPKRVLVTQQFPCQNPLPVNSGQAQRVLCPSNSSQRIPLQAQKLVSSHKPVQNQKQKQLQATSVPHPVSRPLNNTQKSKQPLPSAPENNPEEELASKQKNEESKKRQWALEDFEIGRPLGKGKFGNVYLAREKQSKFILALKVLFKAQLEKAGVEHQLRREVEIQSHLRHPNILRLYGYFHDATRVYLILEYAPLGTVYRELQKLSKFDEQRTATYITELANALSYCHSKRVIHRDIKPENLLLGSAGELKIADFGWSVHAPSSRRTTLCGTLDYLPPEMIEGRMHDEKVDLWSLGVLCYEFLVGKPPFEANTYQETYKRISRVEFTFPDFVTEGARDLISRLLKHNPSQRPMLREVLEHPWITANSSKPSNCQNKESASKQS
Nature of the test: AurA Bioassay (luminescence-based enzyme assay, Kinase-Glo). In kind it is biochemical. As to conditions: 10 μM ATP. An excerpt:
In addition to the c-Abl PK/LDH coupled assay (above), homogeneous luminescence-based inhibitor screening assays were developed for c-Abl, MET, AurA, and PDK1 kinases (among others). Each of these assays made use of an ATP depletion assay (Kinase-Glo™, Promega Corporation, Madison, Wis.) to quantitate kinase activity. The Kinase-Glo™ format uses a thermostable luciferase to generate luminescent signal from ATP remaining in solution following the kinase reaction. The luminescent signal is inversely correlated with the amount of kinase activity.
Materials: Kemptide peptide substrate=LRRASLG (SEQ ID NO:2) (Biopeptide, San Diego, Calif.), ATP (Sigma Cat#A-3377, FW=551), HEPES buffer, pH 7.5, 10% Brij 35 (Calbiochem Cat#203728), MgCl2, Staurosporine (Streptomyces sp. Sigma Cat#85660-1MG), white Costar 384-well flat bottom plate (VWR Cat#29444-088), Autophosphorylated AurA kinase (see below), Kinase-Glo™ (Promega Cat#V6712).
Stock Solutions: 10 mM Kemptide peptide (7.72 mg/ml in water), stored at −20° C.; 100 mM HEPES buffer+0.015% Brij 35, pH 7.5 (5 ml 1M HEPES stock+75 μL 10% Brij 35+45 ml miliQH2O); 10 mM ATP (5.51 mg/ml in dH2O) stored at −20° C. (diluted 50 μl into total of 10 ml miliQH2O daily=50 μM ATP working stock); 100 mM MgCl2; […] Staurosporine, 2× Kinase-Glo™ reagent (made fresh or stored at −20° C.).
AurA Autophosphorylation Reaction: ATP and MgCl2 were added to 1-5 mg/ml AurA at final concentrations of 10 mM and 100 mM, respectively. The autophosphorylation reaction was incubated at 21° C. for 2-3 h. The reaction was stopped by the addition of EDTA to a final concentration of 50 mM, and samples were flash frozen with liquid N2 and stored at −80° C.
Standard Assay Setup for 384-well format (20 μl kinase reaction, 40 μl detection reaction): 10 mM MgCl2; 0.2 mM Kemptide peptide; […] test compound (in DMSO); 0.3 μg/ml Autophosphorylated AurA kinase; 10 μM ATP; 100 mM HEPES+0.015% Brij buffer. Positive controls contained DMSO with no test compound. Negative controls contained 5 μM staurosporine. The kinase reactions were initiated at time t=0 by the addition of ATP. Kinase reactions were incubated at 21° C. for 45 min, then 20 μl of Kinase-Glo™ reagent were added to each well to quench the kinase reaction and initiate the luminescence reaction. After a 20 min incubation at 21° C., the luminescence was detected in a plate-reading luminometer.
The Sf9 insect cell pellets (˜18 g) produced from 6 L of cultured cells expressing human Aurora-2 were resuspended in 50 mM Na Phosphate pH 8.0, 500 mM NaCl, 10% glycerol, 0.2% n-octyl-β-D-glucopyranoside (BOG) and 3 mM β-Mercaptoethanol (BME). One tablet of Roche Complete, EDTA-free protease inhibitor cocktail (Cat# 1873580) and 85 units Benzonase (Novagen Cat#70746-3)) were added per 1 L of original culture. Pellets were resuspended in approximately 50 ml per 1 L of original culture and were then sonicated on ice with two 30-45 sec bursts (100% duty cycle). Debris was removed by centrifugation and the supernatant was passed through a 0.8 μm syringe filter before being loaded onto a 5 ml Ni^2+ HiTrap column (Pharmacia). The column was washed with 6 column volumes of 50 mM Na Phosphate pH 8.0, 500 mM NaCl, 10% glycerol, 3 mM BME. The protein was eluted using a linear gradient of the same buffer containing 500 mM Imidazole. The eluant (24 ml) was cleaved overnight at 4° C. in a buffer containing 50 mM Na Phosphate pH 8.0, 500 mM NaCl, 10% glycerol, 3 mM BME and 10,000 units of TEV (Invitrogen Cat# 10127-017). […]
Compound `COCCOc1ccc(-c2cnc3[nH]cc(-c4ccccc4OC)c3c2)cc1OCCOC` [AE68] came in with an IC50 of 500 to 5000 nM. On the same count and under the same terms, next, `COc1ccccc1-c1c[nH]c2ncc(-c3ccc(S(N)(=O)=O)s3)cc12` [AE11]: 500 to 5000 nM; `COc1ccccc1-c1c[nH]c2ncc(-c3ccc[nH]3)cc12` [AE67]: 500 to 5000 nM. In turn, `COc1ccccc1-c1c[nH]c2ncc(-c3cccc(S(C)(=O)=O)c3)cc12` [AE13] came in with a half-inhibitory concentration (IC50) of 500 to 5000 nM. Still for that read-out and setting: to `CNC(=O)c1cncc(-c2cnc3[nH]cc(-c4ccccc4OC)c3c2)c1` [AE1] belongs 500 to 5000 nM.
